Reference: patent publication US9593149B2, “Amylin and calcitonin receptor agonist” (Novo Nordisk A/S, priority 2014, dated 2017)
pIC50: −log10 of the molar value. Converted amounts (≈) assume the structure as drawn. Numbered stars: 1 amine (or outer) side, 2 acyl side, 3 side chain; on linkers, the order of the positions; unused ones are H or OH. Side chains are listed from the residue outwards. Peptide text beside a SMILES is read from it. * marks the point of attachment. C20 diacid = O=C(O)CCCCCCCCCCCCCCCCCCC(=O)*; γGlu = O=C(O)[C@H](CCC(=O)[*:2])N[*:1]; C14 diacid = O=C(O)CCCCCCCCCCCCC(=O)*

Legend:
[1] = Assay (IV) determination of solubility; type: physicochemical
Experimental: Assay (IV)—Determination of Solubility
The mimylin peptide was dissolved in water at ˜500 nmol/ml and mixed 1:1 with a series of buffers (100 mM glycylglycine pH 3.0, 100 mM glycylglycine pH 4.0, 100 mM glycylglycine pH 5.0, 100 mM bistrispropane pH 6.0, 100 mM bistrispropane pH 6.5, 100 mM bistrispropane pH 7.0, 100 mM bistrispropane pH 7.5, 100 mM bistrispropane pH 8.0).

rat calcitonin receptor = target: T1, rat calcitonin receptor (Rattus norvegicus, UniProt P32214); assay: Assay (VIII) binding to the rat calcitonin receptor; details: membranes; read-out: rCT-R binding IC50
T1 construct: expressed in transfected cells; host or cells: BHK tk'ts 13 (transient, FuGENE 6)
T1 sequence (P32214 25-479 isoform P32214-2 limits assumed): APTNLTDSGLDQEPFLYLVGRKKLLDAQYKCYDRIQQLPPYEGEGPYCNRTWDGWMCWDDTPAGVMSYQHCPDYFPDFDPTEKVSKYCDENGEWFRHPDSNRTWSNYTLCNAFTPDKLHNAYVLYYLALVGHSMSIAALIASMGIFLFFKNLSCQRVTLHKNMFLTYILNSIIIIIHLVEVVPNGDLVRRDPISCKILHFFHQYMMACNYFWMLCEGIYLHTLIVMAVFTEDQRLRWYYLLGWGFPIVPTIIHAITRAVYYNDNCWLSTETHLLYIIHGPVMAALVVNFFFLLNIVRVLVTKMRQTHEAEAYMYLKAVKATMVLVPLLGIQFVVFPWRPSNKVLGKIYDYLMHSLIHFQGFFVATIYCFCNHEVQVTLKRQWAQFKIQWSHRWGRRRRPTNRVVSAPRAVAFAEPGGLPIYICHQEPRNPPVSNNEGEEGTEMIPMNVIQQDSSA
In short: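 Affinity given as IC50 from a one-site competition fit of bound radioactivity, counted by scintillation after cold HBSS washes and NaOH/SDS lysis. Membranes came from BHK tk'ts 13 cells transiently expressing the rat receptor; other conditions followed the human calcitonin receptor protocol.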

For CC(C)C[C@H](NC(=O)[C@H](C)NC(=O)[C@H](C)NC(=O)[C@@H](NC(=O)[C@H](CO)NC(=O)[C@H](CC(C)C)NC(=O)[C@H](CCC(=O)O)NC(=O)[C@H](CO)NC(=O)[C@H](C)NC(=O)CCCCCCCCCCCCC(=O)O)[C@@H](C)O)C(=O)NCC(=O)N[C@@H](CCCNC(=N)N)C(=O)N[C@@H](CC(C)C)C(=O)N[C@@H](CO)C(=O)N[C@@H](C)C(=O)N[C@@H](CCC(=O)O)C(=O)N[C@@H](CC(C)C)C(=O)N[C@@H](Cc1cnc[nH]1)C(=O)N[C@@H](CCC(=O)O)C(=O)N[C@@H](CC(C)C)C(=O)N[C@@H](C)C(=O)N[C@H](C(=O)N[C@@H](CC(C)C)C(=O)N1CCC[C@H]1C(=O)N[C@@H](CCCNC(=N)N)C(=O)N[C@H](C(=O)N[C@@H](CCC(=O)O)C(=O)N[C@H](C(=O)NCC(=O)N[C@@H](CO)C(=O)NCC(=O)N[C@@H](CO)C(=O)N1CCC[C@H]1C(N)=O)[C@@H](C)O)[C@@H](C)O)[C@@H](C)O [compound 51, [N-terminal(C14 diacid), des1, 30S, 31G]mimylin] ({C14 diacid}-ASELSTAALGRLSAELHELATLPRTETGSGSP-NH2), the Solubility ([1]; pH 3.0) was “≧200 μM”, the Solubility ([1]; pH 4.0) was “≧200 μM” and the Solubility ([1]; pH 5.0) was “≧200 μM”. For the same compound, the Solubility ([1]; pH 6.0) was “≧200 μM”, the Solubility ([1]; pH 6.5) was “≧200 μM” and the Solubility ([1]; pH 7.0) was “≧200 μM”. For the same compound, the Solubility ([1]; pH 7.5) was “≧200 μM”, the Solubility ([1]; pH 8.0) was “≧200 μM” and the pIC50 (rat calcitonin receptor) was 9.91.
In the case of CC(C)C[C@H](NC(=O)[C@H](C)NC(=O)[C@H](C)NC(=O)[C@@H](NC(=O)[C@H](CO)NC(=O)[C@H](CC(C)C)NC(=O)[C@H](CCC(=O)O)NC(=O)[C@H](CO)NC(=O)[C@H](C)NC(=O)CC[C@H](NC(=O)CCCCCCCCCCCCCCCCCCC(=O)O)C(=O)O)[C@@H](C)O)C(=O)NCC(=O)N[C@@H](CCCNC(=N)N)C(=O)N[C@@H](CC(C)C)C(=O)N[C@@H](CO)C(=O)N[C@@H](C)C(=O)N[C@@H](CCC(=O)O)C(=O)N[C@@H](CC(C)C)C(=O)N[C@@H](Cc1cnc[nH]1)C(=O)N[C@@H](CCC(=O)O)C(=O)N[C@@H](CC(C)C)C(=O)N[C@@H](C)C(=O)N[C@H](C(=O)N[C@@H](CC(C)C)C(=O)N1CCC[C@H]1C(=O)N[C@@H](CCCNC(=N)N)C(=O)N[C@H](C(=O)N[C@@H](CCC(=O)O)C(=O)N[C@H](C(=O)NCC(=O)N[C@@H](CO)C(=O)NCC(=O)N[C@@H](CO)C(=O)N[C@@H](Cc1cnc[nH]1)C(N)=O)[C@@H](C)O)[C@@H](C)O)[C@@H](C)O [compound 60, [N-terminal(C20 diacid-gGlu), des1, 30S, 31G, 33H]mimylin] ({C20 diacid-γGlu}-ASELSTAALGRLSAELHELATLPRTETGSGSH-NH2), the Solubility ([1]; pH 3.0) was “≧200 μM”, the Solubility ([1]; pH 4.0) was “≧200 μM” and the Solubility ([1]; pH 5.0) was “≧200 μM”. The Solubility ([1]; pH 6.0) was “≧200 μM”, the Solubility ([1]; pH 6.5) was “≧200 μM” and the Solubility ([1]; pH 7.0) was “≧200 μM”. The Solubility ([1]; pH 7.5) was “≧200 μM”, the Solubility ([1]; pH 8.0) was “≧200 μM” and the pIC50 (rat calcitonin receptor) was 10.70.
In the case of CC(C)C[C@H](NC(=O)[C@H](CO)NC(=O)[C@H](C)NC(=O)[C@@H](NC(=O)[C@H](CO)NC(=O)[C@H](CC(C)C)NC(=O)[C@H](CCC(=O)O)NC(=O)[C@H](CO)NC(=O)[C@H](C)NC(=O)CC[C@H](NC(=O)CCCCCCCCCCCCCCCCCCC(=O)O)C(=O)O)[C@@H](C)O)C(=O)NCC(=O)N[C@@H](CCCNC(=N)N)C(=O)N[C@@H](CC(C)C)C(=O)N[C@@H](CO)C(=O)N[C@@H](C)C(=O)N[C@@H](CCC(=O)O)C(=O)N[C@@H](CC(C)C)C(=O)N[C@@H](Cc1cnc[nH]1)C(=O)N[C@@H](CCC(=O)O)C(=O)N[C@@H](CC(C)C)C(=O)N[C@@H](CO)C(=O)N[C@H](C(=O)N[C@@H](Cc1ccc(O)cc1)C(=O)N1CCC[C@H]1C(=O)N[C@@H](CCCNC(=N)N)C(=O)N[C@H](C(=O)N[C@@H](CCC(=O)O)C(=O)N[C@H](C(=O)NCC(=O)N[C@@H](CO)C(=O)NCC(=O)N[C@@H](CO)C(=O)N[C@@H](Cc1ccc(O)cc1)C(N)=O)[C@@H](C)O)[C@@H](C)O)[C@@H](C)O [compound 100, [N-terminal(C20 diacid-gGlu), des1, 9S, 21S, 23Y, 30S, 31G, 33Y]mimylin] ({C20 diacid-γGlu}-ASELSTASLGRLSAELHELSTYPRTETGSGSY-NH2), the Solubility ([1]; pH 3.0) was “≧200 μM”, the solubility at 18 h ([1]; pH 5.0) was 1 µM (≈ 3.82 µg/mL) and the solubility at 18 h ([1]; pH 6.0) was 63 µM (≈ 241 µg/mL). The solubility at 18 h ([1]; pH 6.5) was 180 µM (≈ 688 µg/mL), the Solubility ([1]; pH 7.0) was “≧200 μM” and the Solubility ([1]; pH 7.5) was “≧200 μM”. The Solubility ([1]; pH 8.0) was “≧200 μM” and the pIC50 (rat calcitonin receptor) was 10.21.
With CC(=O)N[C@@H](C)C(=O)N[C@@H](CO)C(=O)N[C@@H](CCC(=O)O)C(=O)N[C@@H](CC(C)C)C(=O)N[C@@H](CO)C(=O)N[C@H](C(=O)N[C@@H](C)C(=O)N[C@@H](C)C(=O)N[C@@H](CC(C)C)C(=O)NCC(=O)N[C@@H](CCCNC(=N)N)C(=O)N[C@@H](CC(C)C)C(=O)N[C@@H](CO)C(=O)N[C@@H](C)C(=O)N[C@@H](CCCCNC(=O)CC[C@H](NC(=O)CCCCCCCCCCCCCCCCCCC(=O)O)C(=O)O)C(=O)N[C@@H](CC(C)C)C(=O)N[C@@H](Cc1cnc[nH]1)C(=O)N[C@@H](CCC(=O)O)C(=O)N[C@@H](CC(C)C)C(=O)N[C@@H](C)C(=O)N[C@H](C(=O)N[C@@H](CC(C)C)C(=O)N1CCC[C@H]1C(=O)N[C@@H](CCCNC(=N)N)C(=O)N[C@H](C(=O)N[C@@H](CCC(=O)O)C(=O)N[C@H](C(=O)NCC(=O)N[C@@H](CO)C(=O)NCC(=O)N[C@@H](CO)C(=O)N1CCC[C@H]1C(N)=O)[C@@H](C)O)[C@@H](C)O)[C@@H](C)O)[C@@H](C)O [compound 69, [N-terminal(acetyl), des1, 16K(C20 diacid-gGlu), 30S, 31G]mimylin] (Ac-ASELSTAALGRLSAK([γGlu-C20 diacid])LHELATLPRTETGSGSP-NH2) the Solubility ([1]; pH 3.0) was “≧200 μM”, the Solubility ([1]; pH 4.0) was “≧200 μM” and the Solubility ([1]; pH 5.0) was “≧200 μM”. The Solubility ([1]; pH 6.0) was “≧200 μM”, the Solubility ([1]; pH 6.5) was “≧200 μM” and the Solubility ([1]; pH 7.0) was “≧200 μM”. The Solubility ([1]; pH 7.5) was “≧200 μM”, the Solubility ([1]; pH 8.0) was “≧200 μM” and the pIC50 (rat calcitonin receptor) was 10.38.
With CC(C)C[C@H](NC(=O)CNC(=O)[C@H](CO)NC(=O)[C@H](C)NC(=O)CC[C@H](NC(=O)CCCCCCCCCCCCCCCCCCC(=O)O)C(=O)O)C(=O)N[C@@H](CO)C(=O)N[C@H](C(=O)N[C@@H](C)C(=O)N[C@H](C(=O)N[C@@H](CC(C)C)C(=O)NCC(=O)N[C@@H](CCCNC(=N)N)C(=O)N[C@@H](CC(C)C)C(=O)N[C@@H](CO)C(=O)N[C@@H](CCC(N)=O)C(=O)N[C@@H](CCC(=O)O)C(=O)N[C@@H](CC(C)C)C(=O)N[C@@H](Cc1cnc[nH]1)C(=O)N[C@@H](CCC(=O)O)C(=O)N[C@@H](CC(C)C)C(=O)N[C@@H](CCC(N)=O)C(=O)N[C@H](C(=O)N[C@@H](Cc1ccc(O)cc1)C(=O)N1CCC[C@H]1C(=O)N[C@@H](CCCNC(=N)N)C(=O)N[C@H](C(=O)N[C@@H](CCC(=O)O)C(=O)N[C@H](C(=O)NCC(=O)N[C@@H](CO)C(=O)N[C@@H](CCC(N)=O)C(=O)N[C@H](C(=O)N[C@@H](Cc1ccc(O)cc1)C(N)=O)[C@@H](C)O)[C@@H](C)O)[C@@H](C)O)[C@@H](C)O)C(C)C)[C@@H](C)O [compound 119, [N-terminal(C20 diacid-gGlu), des1, 4G, 9V, 15Q, 21Q, 23Y, 30S, 31Q, 32T, 33Y]mimylin] ({C20 diacid-γGlu}-ASGLSTAVLGRLSQELHELQTYPRTETGSQTY-NH2) the Solubility ([1]; pH 3.0) was “≧200 μM”, the solubility at 18 h ([1]; pH 4.0) was 170 µM (≈ 671 µg/mL) and the solubility at 18 h ([1]; pH 5.0) was 56 µM (≈ 221 µg/mL). For the same compound, the Solubility ([1]; pH 6.0) was “≧200 μM”, the Solubility ([1]; pH 6.5) was “≧200 μM” and the Solubility ([1]; pH 7.0) was “≧200 μM”. For the same compound, the Solubility ([1]; pH 7.5) was “≧200 μM”, the Solubility ([1]; pH 8.0) was “≧200 μM” and the pIC50 (rat calcitonin receptor) was 10.80.
With CC(C)C[C@H](NC(=O)[C@H](C)NC(=O)[C@H](C)NC(=O)[C@@H](NC(=O)[C@H](CO)NC(=O)[C@H](CC(C)C)NC(=O)[C@H](CCC(=O)O)NC(=O)[C@H](CO)NC(=O)[C@H](C)NC(=O)CC[C@H](NC(=O)CCCCCCCCCCCCCCCCCCC(=O)O)C(=O)O)[C@@H](C)O)C(=O)NCC(=O)N[C@@H](CCCNC(=N)N)C(=O)N[C@@H](CC(C)C)C(=O)N[C@@H](CO)C(=O)N[C@@H](C)C(=O)N[C@@H](CCC(=O)O)C(=O)N[C@@H](CC(C)C)C(=O)N[C@@H](Cc1cnc[nH]1)C(=O)N[C@@H](CCC(=O)O)C(=O)N[C@@H](CC(C)C)C(=O)N[C@@H](C)C(=O)N[C@H](C(=O)N[C@@H](CC(C)C)C(=O)N1CCC[C@H]1C(=O)N[C@@H](CCCNC(=N)N)C(=O)N[C@H](C(=O)N[C@@H](CCC(=O)O)C(=O)N[C@H](C(=O)NCC(=O)N[C@@H](CO)C(=O)NCC(=O)N[C@@H](CO)C(=O)N[C@@H](Cc1ccc(O)cc1)C(N)=O)[C@@H](C)O)[C@@H](C)O)[C@@H](C)O [compound 59, [N-terminal(C20 diacid-gGlu), des1, 30S, 31G, 33Y]mimylin] ({C20 diacid-γGlu}-ASELSTAALGRLSAELHELATLPRTETGSGSY-NH2) the Solubility ([1]; pH 3.0) was “≧200 μM”, the Solubility ([1]; pH 4.0) was “≧200 μM” and the solubility at 18 h ([1]; pH 5.0) was 73 µM (≈ 273 µg/mL). The Solubility ([1]; pH 6.0) was “≧200 μM”, the Solubility ([1]; pH 6.5) was “≧200 μM” and the Solubility ([1]; pH 7.0) was “≧200 μM”. For the same compound, the Solubility ([1]; pH 7.5) was “≧200 μM”, the Solubility ([1]; pH 8.0) was “≧200 μM” and the pIC50 (rat calcitonin receptor) was 10.64.
